For assay [1], the system named is β 1,4-galactosyltransferase. The following applies: previous observation, Wong 1992; Srivastava 1993; cited from earlier work.
Assay [2] deals with T1, α-1,3-fucosyltransferase V (Homo sapiens, UniProt Q11128).
T1 construct: made in house
T1 sequence (Q11128 1-374): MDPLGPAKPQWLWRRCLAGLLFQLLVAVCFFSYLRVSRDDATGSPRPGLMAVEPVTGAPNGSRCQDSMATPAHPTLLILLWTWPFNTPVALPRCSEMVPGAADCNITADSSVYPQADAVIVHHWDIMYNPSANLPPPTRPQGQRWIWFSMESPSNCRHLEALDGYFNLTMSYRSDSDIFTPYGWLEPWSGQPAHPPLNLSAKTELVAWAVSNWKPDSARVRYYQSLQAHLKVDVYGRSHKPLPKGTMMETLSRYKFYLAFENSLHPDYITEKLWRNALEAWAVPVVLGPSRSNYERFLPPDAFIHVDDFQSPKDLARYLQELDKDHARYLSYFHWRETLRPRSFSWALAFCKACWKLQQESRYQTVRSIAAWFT
In words: Inhibition of α-1,3-fucosyltransferase V (FucT V), GDP-Fuc varied at fixed inhibitor concentrations. In kind it is biochemical. To be noted: for mode of inhibition of FucT V: GDP-Fuc varied, constant LacNAc acceptor, listed as GDP-2F-Fuc. As to the method: GDP-Fuc concentration was varied ([…]) and the acceptor sugar, LacNAc-b-O--(CH2)5 CO2 CH3, was kept at twice its km level, 0.6 mM. (Inset) A replot of the slopes as a function of GDP-2F-Fuc concentration is presented as a graphical Ki determination (Ki =x axis intercept).
(§1) The interaction of GDP-2F-Fuc with FucT V was evaluated. The mode of inhibition of FucT V by GDP-2F-Fuc was evaluated by varying the GDP-Fuc concentrations at fixed GDP-2F-Fuc concentrations at a constant LacNAc-b-O--(CH2)5 CO2 CH3 concentration. […] Pre incubation of 0.010 mM GDP-2F-Fuc with the FucT V in the presence of LacNAc-b-O--(CH2)5 CO2 CH3 and MnCl2 was performed for 0-80 minutes. The reactions were initiated with GDP-Fuc and allowed to react for 30 minutes. The percent inhibition remained constant at 58% which is expected for reversible inhibition. If GDP-2F-Fuc was either an inactivator of a slow substrate, then the inhibition would either increase or decrease as a function of time.
Anhydrous pyridine was purchased from Aldrich and used without further purification. N-Acetyllactosamine, Dowex 1-X8, MES, pyruvate kinase, lactate dehydrogenase, PEP, GDP, NADH, guanosine 5'-monophospho-morpholidate 4-morpholine-N,N'-dicyclohexylcarboxamidine salt, GDP-Fuc, and cacodylic acid were purchased from Sigma. Guanosine 5'-diphospho-[U-^14 C]-b-L-fucose was purchased from Amersham Life Science. ScintiVerseI scintillation cocktail and MnCl2.4 H2 O were purchased from Fisher Scientific Company. Protein concentrations were determined with the Coomassie protein staining reagent with albumin standards as purchased from Pierce. The scintillation counter used was the Beckman LS 3801. Fluorescence was measured on a Hitachi F2000 Fluorescence Spectrophotometer. Human a-1,3-fucosyltransferase and LacNAc-b-O--(CH2)5 CO2 CH3 were prepared according to published procedures (Murray et al.(1996) Biochemistry 35, 11183-11195.).
GDP-Fuc concentration was varied ([…]) at fixed concentrations of GDP-2F-Fuc ([…]), and the acceptor sugar, LacNAc-b-O-(CH2)5 CO2 CH3, was kept at twice its Km level, 0.6 mM. Each assay contained 0.3 munit of FucT V and 10 mM MnCl2 in a 100 mM MES buffer (pH 6.0). Reactions were 30 minutes at room temperature.

Another assay has as its target T2, FucT V (Homo sapiens, UniProt Q11128).
T2 sequence (Q11128 1-374): T1 sequence (Q11128 1-374)
In words: Pre-incubation of GDP-2F-Fuc with FucT V (slow substrate / inactivator test). In kind it is biochemical. As to the method: as §1
A 0.350 mL solution that contained 10 mM MnCl2 , 2.1 munits FucT V, 0.30 mM LacNAc-b-O--(CH2)5 CO2 CH3, 0.010 mM GDP-2F-Fuc, and 100 mM MES (pH 6.0). This solution was subject to incubation at room temperature for various time periods (0, 3, 10, 20, 30, 60, 80 min). After the incubation time, a 0.050 mL aliquot was removed and GDP-[U-^14 C]-fucose was added to a final concentration of 0.050 mM to initiate the fucosyltransfer reaction. After a 30 minute reaction time period, the solution was passed through a Dowex 1 column and the amount of product determined.

Assay [3] deals with β 1,4-galactosyltransferase. In words: Inhibition study of β-1,4-galactosyltransferase (UDP-[3H]Gal transfer to N-acetylglucosamine). In kind it is biochemical, bovine milk. The following applies: for mode of inhibition of β-1,4-galactosyltransferase: HEPES 100 mM, pH 7.4. The procedure:
All assays contained 10 mM of MnCl2, 2 mM of UDP-[^3 H]Gal, 5 μL of 0.125 mg/mL galactosyltransferase, 0.5-4 mM of N-acetylglucosamine, 0-0.05 mM of 1, and 100 mM of HEPES buffer (pH 7.4) in a total assay volume of 0.05 mL. Assay was performed at 25° C. Reactions were halted with the addition of 0.3 mL of distilled, de-ionized water after 10 min. The reaction mixtures were passed through a pipette column (2 cm) of Sepadex QAE A-25 with 1 mL of distilled, de-ionized water. The obtained fractions were collected in 10 mL of ScintiVerse I scintillation cocktail. A control reaction without enzyme was used to establish the background, non-enzymatic cleavage rate. A typical control reaction of 41754 cpm UDP-[^3 H]Gal would result in 890 cpm of non-enzymatic column flow through.

The subject of assay [4] is β 1,4-galactosyltransferase. To be noted: literature: Morrison, Ebner J. Biol. Chem. 1971; read-out: Km of GlcNAc (lit); cited from earlier work.

Entries after “also recorded” stand apart in the source; their conditions may differ. Like-named read-outs stand apart in the source and are kept apart here.

As to `O=c1ccn([C@@H]2O[C@H](COP(=O)(O)OP(=O)(O)O[C@@H]3C[C@@H](O)[C@@H](O)[C@@H](CO)O3)[C@@H](O)[C@H]2O)c(=O)[nH]1` [2-deoxy derivative], the “substrate quality for the transferase” value in assay [1] is listed as “good substrate”.

Take `C[C@@H]1O[C@H](OP(=O)(O)OP(=O)(O)OC[C@H]2O[C@@H](n3cnc4c(=O)[nH]c(N)nc43)[C@H](O)[C@@H]2O)[C@@H](F)[C@H](O)[C@@H]1O` [Compound 21, Guanosine 5'-diphospho-2-deoxy-2-fluoro-β-L-fucose]: the “mode of inhibition of FucT V” value in assay [2] was “potent competitive inhibitor; also recorded: competitive inhibition pattern”; in assay [2] (21), “potent competitive inhibitor”. In addition, the “relative potency as FucT V inhibitor” value in assay [2] (compared with inhibitors known to date) is given as “most potent inhibitor of this enzyme to date”. Besides, the Ki in assay [2] (α-1,3-fucosyltransferase V, summary and description) turned out to be 4.2 µM. In addition, the “percent inhibition after pre-incubation” value on FucT V (0.010 mM GDP-2F-Fuc, pre-incubation 0-80 minutes, 30 minutes reaction, remained constant) turned out to be 58%. Besides, the “effect of pre-incubation on the potency of inhibition” value at FucT V (incubation with FucT V and acceptor prior to GDP-Fuc) is “no effect”. The “slow substrate or inactivator behaviour” value at FucT V (pre-incubation with FucT V, acceptor and MnCl2 before GDP-Fuc, listed as GDP-2F-Fuc) is given as “not a slow substrate or an inactivator; also recorded: neither an inactivator nor a slow substrate”.

Turning to `O=c1ccn([C@@H]2O[C@H](COP(=O)(O)OP(=O)(O)O[C@H]3O[C@H](CO)[C@H](O)[C@H](O)[C@H]3F)[C@@H](O)[C@H]2O)c(=O)[nH]1` [Compound 1, Uridine 5'-diphospho-2-deoxy-2-fluoro-α-D-galactose], the “mode of inhibition of β-1,4-galactosyltransferase” value in assay [3] is “competitive inhibitor”; in assay [3] (listed as UDP-2F-Gal, 1), “potent competitive inhibitor”; in assay [3] (listed as UDP-2FGal), “competitive inhibitor”; in assay [3] (listed as UDP-2FGal 1), “competitive inhibition”. The compound further registered a Ki in assay [3] (competitive inhibition, UDP-Gal, GlcNAc, Mn2+ 10 mM, HEPES 100 mM pH 7.4, 25° C.) of 41 µM.

As for `CC(=O)N[C@H]1C(O)O[C@H](CO)[C@@H](O)[C@@H]1O` (stereo partly shown) [GlcNAc, N-acetylglucosamine, reference compound], in assay [3] (acceptor GlcNAc, HEPES pH 7.4), the Vmax was 0.14 ± 0.01 µmol/min. The Km is 5.3 ± 0.5 mM in assay [3] (β 1,4-galactosyltransferase, HEPES pH 7.4, read-out: Km of GlcNAc) and 6 mM in assay [4].

What is called Ki is a dissociation constant, usually derived from enzyme kinetics or from competition with a known ligand. For orientation: Vmax means the rate approached at saturating substrate. Usually Km stands for the substrate concentration at which the rate is half of its maximum.
